Experimental data from patent publication US9777015B2, “Useful thiophene derivatives in the treatment of diabetes” (METABRAIN RESEARCH, priority 2012, dated 2017).
Like-named read-outs stand apart in the source and are kept apart here.

Assays:
INS-1 cells = test: Stimulation test of insulin secretion by INS-1 cells; format: cell-based; settings: Rattus norvegicus, 1 h incubation, 3.5 mM glucose; for activity at 50 µM: INS1, compound at 50 μM, read-out: INS-1 % of ctrl @ 50 μM; for activity at 10 µM: INS1, compound at 10 μM, read-out: INS-1 % of ctrl @ 10 μM
Description: The different compounds were tested on an INS-1 beta-pancreatic line in order to evaluate their capability of potentializing the insulin secretion in response to glucose. Very briefly, the cells are cultivated in a culture medium, RPMI 1640 with 10 mM glucose containing 1 mM of sodium pyruvate, 50 μM of 2-mercaptoethanol, 2 mM of glutamine, 10 mM of HEPES, 100 IU/mL of penicillin, 100 μg/mL of streptomycin and 10% of inactivated fetal calf serum, as described by Asfari et al.. For the insulin secretion test, the INS-1 cells are sown and cultivated in 96-well plates. After 3 days of cultivation at 37° C. in a humid atmosphere (95% air/5% CO2), the medium is removed and the cells are incubated for 16 h in a medium containing 5 mM of glucose and 1% of inactivated fetal calf serum. On the day of the test, the cells are washed with a Krebs buffer (pH 7.4) containing 0.1% of bovine albumin and then pre-incubated for 30 min at 37° C. in this same buffer containing 2.8 mM of glucose. Finally, the cells are again washed with Krebs buffer and then incubated for 1 h in the buffer of the secretion test (Krebs, pH 7.4 containing 0.1% of bovine albumin and 3.5 mM of glucose and molecules to be evaluated). At the end of the test, the cell supernatant is recovered in order to measure therein the secreted insulin, by means of an ELISA kit using a rat anti-insulin antibody (ELISA Alpco Cat no. 80-INSRTH-E10). Each condition is tested in triplicate. The 3.5 mM glucose, the 10^−7M GLP-1 and the Forskoline 10^−7/IBMX 10^−5M mixtures are used as positive controls of the test. A compound stimulates the secretion of insulin if this factor is greater than or equal to 130% of the control for a given glucose dose.

[1] = system: hepatocytes isolated from Wistar rat liver; test: Test of inhibition of hepatic production of glucose (isolated hepatocytes, 3 h or 20 h incubation); format: cell-based; settings: for activity at 50 µM / activity at 100 µM: Rattus norvegicus, Hepatocyte; for activity at 50 µM: read-out: HGP % of ctrl @ 50 μM; for activity at 100 µM: read-out: HGP % of ctrl @ 100 μM
Summary of the method: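 Hepatocytes from 24 h-fasted Wistar rats were cultured overnight in glucose-free RPMI with hydrocortisone (7.10^−5M). Glucose production was run for 3 h in Krebs with lactate/pyruvate plus compounds (0.1% DMSO final), or after an added 20 h pretreatment during the RPMI culture. Supernatant glucose was measured by glucose oxidase and expressed per mg protein (Lowry).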

[2] = system: isolated perfused pancreases of N0STZ diabetic rats; test: Insulin secretion in response to glucose at isolated perfused pancreases of N0STZ diabetic rats; parameters: species or system rat; settings: for Insulin secretion peak at G16.5 mM, Tested product: tested concentration 10 μM, glucose 16.5 mM, average +/- SEM; for restoring insulin secretion in response to glucose: isolated perfused pancreases of N0STZ diabetic rats
Description: The pancreas was taken on rats made to be diabetic by injection of Streptozotocin on the day of birth and anesthetized with Pentobarbital (Nembutal©: 45 mg/kg; intraperitoneal route). These rats have a specific deficiency of the insulin response to glucose, as observed in humans with diabetes of type II. The isolation and the perfusion of the pancreas were achieved according to a modification of the procedure described by Sussman et al.. The effect of the compounds or reference substances is tested for 35 minutes (from t=20 min to t=55 min) in Krebs buffer in the absence (GO) or in the presence of glucose at 2.8 mM (G2.8 mM), and then 20 minutes (from t=55 min to t=75 min) in the presence of glucose 16.5 mM. The concentration of insulin secreted into the medium is measured by an Elisa assay (ELISA Alpco Cat no. 80-INSRTH-E10). The results are expressed as an average+/−SEM (Standard Error of the Mean) of several experiments.

GK (Goto-Kakisaki) rats = test: Antidiabetic activity in GK (Goto-Kakisaki) rats, intravenous glucose tolerance test (IVGTT); format: in vivo, rat; settings: single oral dose 20 mg/kg
Description: The antidiabetic activity of compound 10 was evaluated in GK rats, a non-obese model of diabetes of type II. This model was obtained by cross-breeding of Wistar rats selected on the basis of a slight intolerance to glucose. These rats have the majority of dysfunctions observed in diabetes of type II in humans: hyperglycemia, intolerance to glucose, insulin-resistance, and deteriorated insulin response to glucose. These animals were bred at Metabrain and were housed in an animal housing facility with a regulated temperature (22±2° C.) under constant humidity (50±20%) with a day/night cycle of 12 h (light from 7 h-19 h) and have access ad libitum to food and drink. The housing and experimentation conditions comply with the European directives relating to health and ethical treatment of laboratory animals (ETS123). In this study, the rats used are female 16-week old GK rats having fasted for 2 hours before beginning the study (postabsorptive condition). A glucose tolerance test is carried out via an intravenous route (IVGTT) on 2 groups of rats: One group treated with the compound 10 orally at the single dose of 20 mg/kg and a control group treated orally with the carrier. The tolerance test is carried out 1 h after oral administration of compound 10 on the animals anesthetized beforehand with pentobarbital (45 mg/kg via an intraperitoneal route). A blood sample was taken at TO just before administration of the glucose load (0.5 g/kg via an intravenous route) and at x T5, T10, T15, T20 and T30 min after the glucose load. The blood samples are centrifuged in order to collect the plasma for determining glycemia. The results shown above are expressed • as a percentage of the decrease of glycemia at TO for the group treated with the compound 10, compared with the control group. • as a percentage of the decrease of AUC (area under the curve of glycemia versus time) for the group treated with the compound 10 as compared with the control group.

[3] = 3 h, hepatic glucose production, rat hepatocytes, 3 h incubation, compound at 50 μM
[4] = 3 h, hepatic glucose production, rat hepatocytes, 3 h incubation, compound at 100 μM
[5] = 20 h, hepatic glucose production, rat hepatocytes, 20 h incubation, compound at 50 μM
[6] = 20 h, hepatic glucose production, rat hepatocytes, 20 h incubation, compound at 100 μM

SMILES | activity at 50 µM (INS-1 cells) | activity at 50 µM [1, 3] | activity at 100 µM [1, 4] | Insulin secretion peak at G16.5 mM, Tested product [2] | activity at 10 µM (INS-1 cells) | activity at 50 µM [1, 5] | activity at 100 µM [1, 6] | restoring insulin secretion in response to glucose [2] | HGP % of ctrl @ 50 μM ([1]; hepatic glucose production, rat hepatocytes, 3 h incubation, compound at 50 μM) | HGP % of ctrl @ 100 μM ([1]; hepatic glucose production, rat hepatocytes, 3 h incubation, compound at 100 μM) | inhibition of hepatic production of glucose ([1]; 20 h incubation, with two doses) | intolerance to glucose (GK (Goto-Kakisaki) rats; GK rats, IVGTT 1 h after administration) | basal hyperglycemia (GK (Goto-Kakisaki) rats; GK rats, glycemia at T0) | AUC, % of activity (GK (Goto-Kakisaki) rats; female GK rats, IVGTT, vs control group treated with carrier) | Glycemia at T0, % of activity (GK (Goto-Kakisaki) rats; female GK rats, vs control group treated with carrier)
CCOC(=O)Cc1cc(C(=O)c2ccc(OC)cc2)sc1-c1ccc(Cl)c(Cl)c1 [compound 157, ethyl 2-[2-(3,4-dichlorophenyl)-5-(4-methoxybenzoyl)-3-thienyl]acetate] | 140% | 97% | 74% | 989 ± 86 μU/min. |  |  |  |  |  |  |  |  |  |  | 
CCOC(=O)C(COC)c1cc(C(=O)c2ccc(OC)cc2)sc1-c1ccc(Cl)cc1 (centres unmarked) [compound 124, ethyl 2-(2-(4-chlorophenyl)-5-(4-methoxybenzoyl)thiophen-3-yl)-3-methoxypropanoate] | 169% |  |  |  | 177% | 92% | 60% | strongest secretions |  |  |  |  |  |  | 
O=C(O)Cc1cc(C(=O)c2ccco2)sc1-c1ccc(Cl)cc1 [compound 56, 2-(2-(4-chlorophenyl)-5-(furan-2-carbonyl)thiophen-3-yl)acetic acid] |  |  |  | 845 ± 133 μU/min. |  |  |  |  | 94 % of ctrl | 70 % of ctrl |  |  |  |  | 
CCOC(=O)Cc1cc(C(=O)c2ccc(OC)cc2)sc1-c1ccc(Cl)cc1 [compound 13, ethyl 2-(2-(4-chlorophenyl)-5-(4-methoxybenzoyl)thiophen-3-yl)acetate] |  | 84% | 69% | 1 489 μU/min. | 155% | 58% | 35% | strongest secretions |  |  | strongest inhibitions |  |  |  | 
CCOC(=O)Cc1cc(C(=O)c2ccco2)sc1-c1ccc(Cl)cc1 [compound 10, ethyl 2-(2-(4-chlorophenyl)-5-(furan-2-carbonyl)thiophen-3-yl)acetate] | 210% | 64% | 39% |  | 144% |  |  | strongest secretions |  |  |  | capable of reducing | capable of reducing | −35% | −11%
